Assay results reported in ChEMBL document CHEMBL1201862, “PubChem BioAssay data set” (2004).
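Briefly, cells in 96-well plates were exposed to five compound concentrations for 48 h, and endpoints were estimated by linear interpolation. GI50: concentration for 50% inhibition of growth.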 Activity calls are given as the source filed them. Cut-off read from the data, not from the text of the source: active = GI50 up to about 1.1 µM and inactive = higher.

Experiments:
Assay in all cases: NCI anticancer screen, dose series, 48 h
HOP-62 = test system: HOP-62
SK-MEL-28 = test system: SK-MEL-28
OVCAR-5 = test system: OVCAR-5
T47D = test system: T47D
SK-OV-3 = test system: SK-OV-3
HCT-116 = test system: HCT-116
MDA-MB-435 = test system: MDA-MB-435
HCC 2998 = test system: HCC 2998
U-251 = test system: U-251
OVCAR-3 = test system: OVCAR-3
BT-549 = test system: BT-549
NCI/ADR-RES = test system: NCI/ADR-RES
NCI-H23 = test system: NCI-H23
A549 = test system: A549
LOX IMVI = test system: LOX IMVI
MDA-MB-231 = test system: MDA-MB-231
CAKI-1 = test system: CAKI-1
SF-539 = test system: SF-539
OVCAR-8 = test system: OVCAR-8
Malme-3M = test system: Malme-3M

Measured: GI50

BC(=O)NC(CC(C)C)C(=O)NCC(=O)NC1c2ccsc2C(=O)C1O.CN(C)C (stereo not given)
inactive: HOP-62 > 100 µM | SK-MEL-28 > 100 µM | OVCAR-5 > 100 µM | T47D > 100 µM | SK-OV-3 > 100 µM | HCT-116 > 100 µM | MDA-MB-435 > 100 µM | HCC 2998 > 100 µM | U-251 > 100 µM | OVCAR-3 > 100 µM | BT-549 > 100 µM | NCI/ADR-RES > 100 µM | NCI-H23 > 100 µM | A549 > 100 µM | LOX IMVI > 100 µM | MDA-MB-231 > 100 µM | CAKI-1 > 100 µM | SF-539 > 100 µM | OVCAR-8 > 100 µM | Malme-3M > 100 µM

COc1ccccc1/C=C/C1=NN(c2cccc(S(=O)(=O)O)c2)C2(C1)C(Cl)C(=O)N2c1nc2ccccc2s1 (stereo not given)
inactive: HOP-62 > 100 µM | SK-MEL-28 > 100 µM | OVCAR-5 > 100 µM | T47D 12.1 µM | SK-OV-3 > 100 µM | HCT-116 61.9 µM | MDA-MB-435 54.6 µM | HCC 2998 > 91 µM | U-251 52.7 µM | OVCAR-3 31.5 µM | BT-549 49.2 µM | NCI/ADR-RES > 100 µM | NCI-H23 31.9 µM | A549 71.4 µM | LOX IMVI 29.7 µM | MDA-MB-231 > 94.6 µM | CAKI-1 31.8 µM | SF-539 58.2 µM | OVCAR-8 > 51.4 µM | Malme-3M > 100 µM

NC(=O)[C@H](Cc1ccc(O)cc1)NC1=C(Cl)C(=O)c2c(O)ccc(O)c2C1=O
inactive: HOP-62 > 10 µM | SK-MEL-28 2.21 µM | OVCAR-5 8.89 µM | T47D 2.15 µM | SK-OV-3 > 10 µM | HCT-116 1.57 µM | MDA-MB-435 2.07 µM | HCC 2998 2.37 µM | U-251 2.97 µM | OVCAR-3 2.14 µM | BT-549 2.47 µM | NCI/ADR-RES 2.8 µM | NCI-H23 3.26 µM | A549 7.73 µM | LOX IMVI 1.61 µM | MDA-MB-231 2.51 µM | CAKI-1 2.37 µM | SF-539 2.17 µM | OVCAR-8 2.54 µM | Malme-3M 1.96 µM

Cc1noc(NS(=O)(=O)c2ccc(NC(=O)c3ccc4[nH]c5ccccc5c(=O)c4c3)cc2)c1C
inactive: HOP-62 50.1 µM | SK-MEL-28 35.4 µM | OVCAR-5 > 100 µM | T47D 26.1 µM | SK-OV-3 61.9 µM | HCT-116 47.9 µM | MDA-MB-435 35.6 µM | HCC 2998 22.3 µM | U-251 27.4 µM | OVCAR-3 23.6 µM | BT-549 33.3 µM | NCI/ADR-RES > 100 µM | NCI-H23 93.3 µM | A549 > 100 µM | LOX IMVI 22.8 µM | MDA-MB-231 45.9 µM | CAKI-1 > 100 µM | SF-539 20.6 µM | OVCAR-8 32.2 µM | Malme-3M 27 µM

O=C(/C=C/c1cccc(Br)c1)c1ccc(Cl)cc1
inactive: HOP-62 19.2 µM | SK-MEL-28 15.1 µM | OVCAR-5 15.6 µM | T47D 12.8 µM | SK-OV-3 21.1 µM | HCT-116 5.35 µM | MDA-MB-435 6.25 µM | HCC 2998 18.8 µM | U-251 5.98 µM | OVCAR-3 16.7 µM | BT-549 17 µM | NCI/ADR-RES 21.7 µM | NCI-H23 17 µM | A549 16.8 µM | LOX IMVI 12.6 µM | MDA-MB-231 18 µM | CAKI-1 14 µM | SF-539 16.6 µM | OVCAR-8 17 µM | Malme-3M 14 µM

O=C(/N=S(/NC(=O)c1ccccc1)C(Cl)(Cl)Cl)c1ccccc1 (stereo not given)
inactive: HOP-62 19.5 µM | SK-MEL-28 25.3 µM | OVCAR-5 22.9 µM | T47D 26.9 µM | SK-OV-3 > 31.6 µM | HCT-116 15.5 µM | MDA-MB-435 17.7 µM | HCC 2998 34.8 µM | U-251 29.9 µM | OVCAR-3 31.2 µM | BT-549 12.7 µM | NCI/ADR-RES 15.5 µM | NCI-H23 12.4 µM | A549 > 56.9 µM | LOX IMVI 10.6 µM | MDA-MB-231 33.7 µM | CAKI-1 20.9 µM | SF-539 21.1 µM | OVCAR-8 15.5 µM | Malme-3M 17.5 µM

O=C(Nc1ccc(Cl)cc1)NS(=O)(=O)c1coc2ccccc2c1=O
inactive: HOP-62 > 10 µM | SK-MEL-28 > 10 µM | OVCAR-5 > 10 µM | T47D > 10 µM | SK-OV-3 > 10 µM | HCT-116 > 10 µM | MDA-MB-435 > 10 µM | HCC 2998 > 10 µM | U-251 > 10 µM | OVCAR-3 > 10 µM | BT-549 > 10 µM | NCI/ADR-RES > 10 µM | NCI-H23 > 10 µM | A549 > 10 µM | LOX IMVI > 10 µM | MDA-MB-231 > 10 µM | CAKI-1 > 10 µM | SF-539 > 10 µM | OVCAR-8 > 10 µM | Malme-3M > 10 µM

COc1ccc(N2C(=O)C3c4[nH]c5ccccc5c4C4C(C)CCCC4C3C2=O)cc1 (stereo not given)
inactive: HOP-62 23.6 µM | SK-MEL-28 > 71.1 µM | OVCAR-5 > 63.8 µM | T47D > 78.7 µM | SK-OV-3 > 81.3 µM | HCT-116 13 µM | MDA-MB-435 3.46 µM | HCC 2998 > 100 µM | U-251 > 57.7 µM | OVCAR-3 26.1 µM | BT-549 3.64 µM | NCI/ADR-RES 14.9 µM | NCI-H23 54.7 µM | A549 > 45.1 µM | LOX IMVI 46.5 µM | MDA-MB-231 20.4 µM | CAKI-1 36.1 µM | SF-539 > 43.4 µM | OVCAR-8 34 µM | Malme-3M 8.69 µM

O=C(NC(=O)c1c(Cl)nc2sccn12)Nc1ccc(Cl)cc1
inactive: HOP-62 19.5 µM | SK-MEL-28 > 100 µM | OVCAR-5 > 100 µM | T47D 13.7 µM | SK-OV-3 27.4 µM | HCT-116 69.2 µM | MDA-MB-435 > 100 µM | HCC 2998 54.1 µM | U-251 24.8 µM | OVCAR-3 71.4 µM | BT-549 28.4 µM | NCI/ADR-RES > 70.3 µM | NCI-H23 33.5 µM | A549 81.3 µM | LOX IMVI 63.4 µM | MDA-MB-231 25.5 µM | CAKI-1 > 83.9 µM | SF-539 30 µM | OVCAR-8 52.6 µM | Malme-3M 84.3 µM

C=C1C(=O)O[C@H]2[C@H]3O[C@@H](C[C@@H]12)[C@](C)(O)CC[C@@H]1O[C@@]1(C)CCC[C@H]3C
inactive: HOP-62 78.3 µM | SK-MEL-28 32 µM | OVCAR-5 36.2 µM | T47D 25.5 µM | SK-OV-3 29.4 µM | HCT-116 14.2 µM | MDA-MB-435 17.1 µM | HCC 2998 25.8 µM | U-251 22.4 µM | OVCAR-3 16.7 µM | BT-549 12.2 µM | NCI/ADR-RES 26.9 µM | NCI-H23 16.4 µM | A549 25.5 µM | LOX IMVI 16 µM | MDA-MB-231 25.1 µM | CAKI-1 14.2 µM | SF-539 18.7 µM | OVCAR-8 15.7 µM | Malme-3M 12 µM
